Patent US20240116893A1, “Compounds for Disease Treatment” (Duke University, priority 2021, published 2024)
“Also recorded” adds a separate entry of the source. Where two headings read alike, the source gives them in different places. Each block holds one compound with its values, some of them ahead of it.

Tests used:
TAK1 [1] = biological target: T1, TAK1 (Homo sapiens (Human), UniProt O43318); experiment: TAK1 kinase inhibition IC50 (TABLE 1; FIG. 1B selectivity screening); assay type: biochemical
Target sequence in this assay (O43318 31-303): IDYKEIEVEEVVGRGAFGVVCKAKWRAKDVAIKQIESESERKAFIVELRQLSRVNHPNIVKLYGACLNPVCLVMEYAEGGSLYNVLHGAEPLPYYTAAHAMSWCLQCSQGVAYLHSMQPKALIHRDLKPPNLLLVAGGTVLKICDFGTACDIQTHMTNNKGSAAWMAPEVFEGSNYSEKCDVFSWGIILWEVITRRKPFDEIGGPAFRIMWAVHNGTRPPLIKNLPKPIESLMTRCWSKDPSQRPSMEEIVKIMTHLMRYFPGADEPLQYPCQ
Target sequence in this assay (Q15750 468-497 partner): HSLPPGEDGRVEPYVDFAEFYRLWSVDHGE

[2] = Bioavailability of compound 1 (takinib); conditions: in vivo
IRAK4 = IRAK4 (Homo sapiens (Human), UniProt Q9NWZ3); experiment: IRAK4 kinase inhibition IC50 (TABLE 1; FIG. 1B selectivity screening); assay type: biochemical; conditions: for Ratio IC50 (IRAK4)/IC50 (TAK1): selectivity for TAK1 over IRAK4
Sequence of IRAK4 (Q9NWZ3 whole entry): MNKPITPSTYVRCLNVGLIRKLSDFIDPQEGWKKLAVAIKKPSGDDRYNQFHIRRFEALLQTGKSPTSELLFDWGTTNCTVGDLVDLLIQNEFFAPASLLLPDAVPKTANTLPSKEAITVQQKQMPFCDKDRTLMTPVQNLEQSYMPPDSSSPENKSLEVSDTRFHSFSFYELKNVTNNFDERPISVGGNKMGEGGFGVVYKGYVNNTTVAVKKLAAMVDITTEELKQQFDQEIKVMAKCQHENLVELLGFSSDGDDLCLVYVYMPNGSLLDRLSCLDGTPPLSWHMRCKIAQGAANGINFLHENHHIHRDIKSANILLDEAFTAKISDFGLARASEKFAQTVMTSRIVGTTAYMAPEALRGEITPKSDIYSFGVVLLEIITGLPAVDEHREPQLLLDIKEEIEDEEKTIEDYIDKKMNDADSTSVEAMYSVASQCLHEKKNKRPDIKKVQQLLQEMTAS

THP-1 human macrophages = experiment: Cytokine expression in THP-1 macrophages stimulated with LPS and IFNγ; assay type: cell-based; conditions: for attenuation (reduction) of TNF expression: 10 μM, LPS and IFNγ, FIG. 1C
Description: THP-1 cells were treated with 100 nM phorbol 12-myristate 13-acetate (PMA) for 72 hours in RPMI 1640X media. Cells were rested in PMA free media 24 hours prior to treatments. LPS (10 ng/mL) was used for pro-inflammatory stimulation.
THP-1 cells were treated with 10 μM of designated drug or vehicle (DMSO) and 24 hours after treatment, supernatant was added to Human Cytokine XL proteome array (R&D Systems) in accordance with manufacturer protocol. Chemiluminescence was used to visualize protein quantities.
To evaluate the anti-inflammatory effects of compounds 3, 5, and 6, THP-1 human macrophages were stimulated with LPS and IFNγ in the presence of TAK1 inhibitor (10 μM) or vehicle.

[3] = tested on: Collagen Type II Induced Arthritis (CIA); experiment: CIA mouse model of inflammatory arthritis; assay type: in vivo, DBA/1 mice; conditions: for reduction of clinical arthritis score: QD, FIG. 5A; for reduction in disease clinical score (AUC): FIG. 5B
[4] = Pharmacokinetics after oral gavage in rats (plasma and urine, LC-MS); assay type: in vivo, Sprague Dawley rats
Description: All serum/drug samples were frozen and stored at −80° C., unless otherwise specified. […] This internal standard solution was used for tissue homogenization. LC-MS analysis was performed at the Duke Proteomics and Metabolomics Core Facility.

ULK2 [5] = biological target: T2, ULK2 (Homo sapiens (Human), UniProt Q8IYT8); experiment: Kinase panel of 146 human kinases at 10 μM; assay type: biochemical
T2 sequence (Q8IYT8 whole entry): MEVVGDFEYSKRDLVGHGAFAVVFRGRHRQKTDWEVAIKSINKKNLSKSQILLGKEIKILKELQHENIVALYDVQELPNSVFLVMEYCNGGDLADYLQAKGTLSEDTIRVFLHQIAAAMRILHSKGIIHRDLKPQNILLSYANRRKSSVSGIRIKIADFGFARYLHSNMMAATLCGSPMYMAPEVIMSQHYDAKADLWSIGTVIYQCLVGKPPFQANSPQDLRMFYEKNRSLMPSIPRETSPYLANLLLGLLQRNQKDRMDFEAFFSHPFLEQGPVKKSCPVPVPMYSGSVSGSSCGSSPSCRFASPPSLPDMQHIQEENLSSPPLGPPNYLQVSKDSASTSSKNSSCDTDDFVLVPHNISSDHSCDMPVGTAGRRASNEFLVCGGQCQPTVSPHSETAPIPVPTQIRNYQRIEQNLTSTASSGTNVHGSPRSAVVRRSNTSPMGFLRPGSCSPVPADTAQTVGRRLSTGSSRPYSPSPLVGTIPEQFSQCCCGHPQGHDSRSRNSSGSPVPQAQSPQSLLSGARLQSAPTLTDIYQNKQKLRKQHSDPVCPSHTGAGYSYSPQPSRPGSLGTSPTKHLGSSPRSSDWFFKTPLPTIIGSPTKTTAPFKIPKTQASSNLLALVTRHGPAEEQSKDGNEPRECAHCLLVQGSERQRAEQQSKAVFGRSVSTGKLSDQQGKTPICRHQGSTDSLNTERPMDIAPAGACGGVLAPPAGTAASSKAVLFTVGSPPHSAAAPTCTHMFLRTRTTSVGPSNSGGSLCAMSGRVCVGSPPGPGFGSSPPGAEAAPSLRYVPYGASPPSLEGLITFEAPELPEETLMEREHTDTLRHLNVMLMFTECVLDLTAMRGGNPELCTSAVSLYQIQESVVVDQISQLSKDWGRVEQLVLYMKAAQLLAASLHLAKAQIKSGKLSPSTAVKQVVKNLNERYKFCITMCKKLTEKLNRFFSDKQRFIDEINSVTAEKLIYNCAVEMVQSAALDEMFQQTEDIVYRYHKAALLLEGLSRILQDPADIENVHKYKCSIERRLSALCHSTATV
Text: (§1) Kinome selectivity of compound 5 was further screened using a kinase panel of 146 human kinases representing all gene family members within the human kinome.

NUAK1 = NUAK1 (Homo sapiens (Human), UniProt O60285); experiment: Kinase panel of 146 human kinases at 10 μM; assay type: biochemical
Text: as §1

TAK1 [6] = biological target: T1, TAK1; experiment: Kinase panel of 146 human kinases at 10 μM; assay type: biochemical
Text: as §1
Target sequence in this assay (O43318 1-303): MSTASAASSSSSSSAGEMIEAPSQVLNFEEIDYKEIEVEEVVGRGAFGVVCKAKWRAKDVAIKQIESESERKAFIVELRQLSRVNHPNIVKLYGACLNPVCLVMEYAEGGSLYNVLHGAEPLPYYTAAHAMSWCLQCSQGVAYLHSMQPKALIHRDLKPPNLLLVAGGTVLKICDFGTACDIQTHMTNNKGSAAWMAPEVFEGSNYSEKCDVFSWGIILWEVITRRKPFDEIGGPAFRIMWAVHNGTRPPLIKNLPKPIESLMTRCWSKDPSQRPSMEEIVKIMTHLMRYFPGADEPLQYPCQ
Target sequence in this assay (Q15750 437-504 partner): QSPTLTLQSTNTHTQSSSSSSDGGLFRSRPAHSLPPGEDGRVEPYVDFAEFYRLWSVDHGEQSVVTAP

IRAK1 [7] = biological target: T3, IRAK1 (Homo sapiens (Human), UniProt P51617); experiment: Kinase panel of 146 human kinases at 10 μM; assay type: biochemical
T3 sequence (P51617 whole entry): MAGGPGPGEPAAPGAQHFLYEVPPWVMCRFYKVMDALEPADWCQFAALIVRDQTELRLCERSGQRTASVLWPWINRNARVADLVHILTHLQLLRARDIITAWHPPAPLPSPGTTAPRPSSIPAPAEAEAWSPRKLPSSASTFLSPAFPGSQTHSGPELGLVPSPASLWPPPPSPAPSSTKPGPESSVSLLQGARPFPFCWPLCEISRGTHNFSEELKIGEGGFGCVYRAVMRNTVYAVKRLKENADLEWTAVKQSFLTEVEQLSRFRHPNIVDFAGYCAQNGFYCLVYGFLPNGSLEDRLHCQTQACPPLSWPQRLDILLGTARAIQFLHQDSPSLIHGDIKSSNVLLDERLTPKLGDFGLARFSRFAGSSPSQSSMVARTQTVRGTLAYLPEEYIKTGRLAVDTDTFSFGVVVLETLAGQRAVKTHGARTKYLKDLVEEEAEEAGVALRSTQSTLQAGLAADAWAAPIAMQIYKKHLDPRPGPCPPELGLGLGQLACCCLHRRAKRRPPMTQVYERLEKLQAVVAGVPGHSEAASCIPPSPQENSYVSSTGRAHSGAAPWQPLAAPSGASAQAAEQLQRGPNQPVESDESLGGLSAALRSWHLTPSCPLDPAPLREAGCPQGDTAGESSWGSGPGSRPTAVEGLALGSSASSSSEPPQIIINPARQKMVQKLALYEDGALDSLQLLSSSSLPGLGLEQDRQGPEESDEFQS
Text: as §1

CK1γ2 = CK1γ2 (Homo sapiens (Human), UniProt P78368); experiment: Kinase panel of 146 human kinases at 10 μM; assay type: biochemical
Text: as §1

MAP4K5 [8] = biological target: T4, MAP4K5 (Homo sapiens (Human), UniProt Q9Y4K4); experiment: Kinase panel of 146 human kinases at 10 μM; assay type: biochemical
T4 sequence (Q9Y4K4 whole entry): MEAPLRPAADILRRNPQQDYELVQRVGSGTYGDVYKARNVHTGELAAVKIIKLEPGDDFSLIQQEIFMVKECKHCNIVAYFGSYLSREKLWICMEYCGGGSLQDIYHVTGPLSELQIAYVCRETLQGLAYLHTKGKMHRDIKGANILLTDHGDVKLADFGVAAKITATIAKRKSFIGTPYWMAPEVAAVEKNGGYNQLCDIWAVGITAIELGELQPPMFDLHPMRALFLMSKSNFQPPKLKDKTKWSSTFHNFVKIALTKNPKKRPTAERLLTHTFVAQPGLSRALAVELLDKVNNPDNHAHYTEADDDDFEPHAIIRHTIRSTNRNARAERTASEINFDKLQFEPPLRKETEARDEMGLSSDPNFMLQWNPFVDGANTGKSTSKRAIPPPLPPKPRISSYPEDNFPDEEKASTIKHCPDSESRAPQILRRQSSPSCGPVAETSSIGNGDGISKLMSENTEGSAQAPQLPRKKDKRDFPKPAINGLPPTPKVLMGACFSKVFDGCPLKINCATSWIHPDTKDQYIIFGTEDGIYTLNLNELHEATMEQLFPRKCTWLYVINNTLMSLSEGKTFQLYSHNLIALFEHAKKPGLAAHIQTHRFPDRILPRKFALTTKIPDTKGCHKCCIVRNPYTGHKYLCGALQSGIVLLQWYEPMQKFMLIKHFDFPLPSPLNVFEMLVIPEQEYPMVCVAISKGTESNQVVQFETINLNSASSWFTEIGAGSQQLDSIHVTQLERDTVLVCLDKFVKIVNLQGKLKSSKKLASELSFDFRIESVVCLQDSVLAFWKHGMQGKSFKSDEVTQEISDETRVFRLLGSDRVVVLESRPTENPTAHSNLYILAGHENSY
Text: as §1

[9] = tested on: Enbrel® refractory arthritis; experiment: Enbrel refractory CIA rheumatoid arthritis mouse model; assay type: in vivo, mice; conditions: twice daily PO after etanercept days 21-30; n=6; FIG. 4E
Text: To that end, a recently developed pre-clinical model of Enbrel® refractory arthritis was utilized, in which mice develop neutralizing antibodies towards Enbrel® causing disease relapse mirroring patient populations. Using this model, mice (n=6) were initially treated with Enbrel® on days 21-30 until loss of efficacy (determined by an arthritic score of 1.5) around study days 29 to 31 showing the development of neutralizing antibodies and disease progression. At this point, a first treatment group was switched to once daily vehicle (DMSO, PO) from day 30 to day 36, and a second treatment group was switched to twice daily compound 5 (PO).

Water solubility = assay type: physicochemical
[10] = Maximum tolerated dose / 14-day oral toxicology study; assay type: in vivo; conditions: 5, 30, 50 and 100 mg/kg PO once daily, 14 days
Description: Maximum tolerated dose studies and toxicology of compound 5 further established the safety and tolerance of this compound. Here, mice were treated daily with compound 5 (PO) at 5, 30, 50 and 100 mg/kg dosing for […] consecutive days. Daily body weights were taken as well as clinical observations.
Next, and as further described in EXAMPLE 9, a 14-day toxicology study of orally administered compound 5 in CD-1 mice (n=4) was conducted, using daily oral doses of 5, 30, 50 and 100 mg/kg of compound 5. In this study, the change in body weight from baseline as well as the weight of various organs were measured.

GCK = GCK (Homo sapiens (Human), UniProt Q12851); experiment: Dose-response of top 10 kinases (FIG. 1A); assay type: biochemical; conditions: read-out: half maximal inhibitory concentration (IC50) GCK
Description: (§2) Next, dose-response experiments of the top 10 kinases inhibited by compound 5 in the initial kinome screen were conducted as described in EXAMPLE 5. […] The top 10 kinases were selected in an initial kinome screen.

ULK2 [11] = biological target: T2, ULK2; experiment: Dose-response of top 10 kinases (FIG. 1A); assay type: biochemical; conditions: read-out: half maximal inhibitory concentration (IC50) ULK2
Description: as §2

MLK1 = MLK1 (Homo sapiens (Human), UniProt P80192); experiment: Dose-response of top 10 kinases (FIG. 1A); assay type: biochemical; conditions: read-out: half maximal inhibitory concentration (IC50) MLK1
Description: as §2

CAMKKβ-1 = CAMKKβ-1 (Homo sapiens (Human), UniProt Q96RR4); experiment: Dose-response of top 10 kinases (FIG. 1A); assay type: biochemical; conditions: read-out: half maximal inhibitory concentration (IC50) CAMKKβ-1
Description: as §2

CLK2 = CLK2 (Homo sapiens (Human), UniProt P49760); experiment: Dose-response of top 10 kinases (FIG. 1A); assay type: biochemical; conditions: read-out: half maximal inhibitory concentration (IC50) CLK2
Sequence of CLK2 (P49760 whole entry): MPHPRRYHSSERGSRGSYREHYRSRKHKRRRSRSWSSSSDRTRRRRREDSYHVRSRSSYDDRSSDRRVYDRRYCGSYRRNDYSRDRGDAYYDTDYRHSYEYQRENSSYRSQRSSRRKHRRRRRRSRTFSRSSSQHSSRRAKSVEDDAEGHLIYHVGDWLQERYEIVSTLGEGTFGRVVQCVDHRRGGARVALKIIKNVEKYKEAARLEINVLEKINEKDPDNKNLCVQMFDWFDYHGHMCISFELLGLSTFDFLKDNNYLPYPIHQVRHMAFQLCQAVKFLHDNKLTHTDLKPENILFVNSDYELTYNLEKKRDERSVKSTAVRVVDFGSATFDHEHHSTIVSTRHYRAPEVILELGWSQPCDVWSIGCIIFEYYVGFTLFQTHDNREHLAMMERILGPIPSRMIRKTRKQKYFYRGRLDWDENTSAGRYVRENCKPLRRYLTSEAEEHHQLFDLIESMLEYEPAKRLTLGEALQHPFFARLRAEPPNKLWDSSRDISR
Description: as §2

CSNK1G2 = CSNK1G2 (Homo sapiens (Human), UniProt P78368); experiment: Dose-response of top 10 kinases (FIG. 1A); assay type: biochemical; conditions: read-out: half maximal inhibitory concentration (IC50) CSNK1G2
Sequence of CSNK1G2 (P78368 whole entry): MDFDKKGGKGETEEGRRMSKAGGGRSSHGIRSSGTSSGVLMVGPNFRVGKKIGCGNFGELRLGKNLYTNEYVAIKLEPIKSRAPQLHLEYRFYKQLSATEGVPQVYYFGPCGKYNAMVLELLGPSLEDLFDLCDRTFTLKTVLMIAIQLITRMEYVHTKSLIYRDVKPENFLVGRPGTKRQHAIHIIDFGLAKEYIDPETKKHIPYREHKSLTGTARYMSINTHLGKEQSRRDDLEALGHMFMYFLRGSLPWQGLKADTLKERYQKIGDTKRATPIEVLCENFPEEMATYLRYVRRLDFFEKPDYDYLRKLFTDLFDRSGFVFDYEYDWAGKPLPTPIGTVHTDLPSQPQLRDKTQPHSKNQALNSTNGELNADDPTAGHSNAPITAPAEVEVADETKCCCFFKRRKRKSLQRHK
Description: as §2

TAK1 [12] = biological target: T1, TAK1; experiment: Dose-response of top 10 kinases (FIG. 1A); assay type: biochemical; conditions: read-out: half maximal inhibitory concentration (IC50) TAK1
Description: as §2
Target sequence in this assay (O43318 1-303): as the sequence (O43318 1-303) above
Target sequence in this assay (Q15750 437-504 partner): as the sequence (Q15750 437-504 partner) above

IRAK1 [13] = biological target: T3, IRAK1; experiment: Dose-response of top 10 kinases (FIG. 1A); assay type: biochemical; conditions: read-out: half maximal inhibitory concentration (IC50) IRAK1
Description: as §2

NUAK = NUAK (Homo sapiens (Human), UniProt O60285); experiment: Dose-response of top 10 kinases (FIG. 1A); assay type: biochemical; conditions: read-out: half maximal inhibitory concentration (IC50) NUAK
Description: as §2

MAP4K5 [14] = biological target: T4, MAP4K5; experiment: Dose-response of top 10 kinases (FIG. 1A); assay type: biochemical; conditions: read-out: half maximal inhibitory concentration (IC50) MAP4K5
Description: as §2

[15] = 50 mg/kg IP, all joints, FIG. 3E

- IC50 (TAK1 [1]; read-out: IC50 (TAK1)): 0.009 µM
- bioavailability [2]: low
- affinity for IRAK4 less than TAK1 (IRAK4): ~12 fold
- IC50 (IRAK4; read-out: IC50 (IRAK4)): 0.12 µM
- Ratio IC50 (IRAK4)/IC50 (TAK1) (IRAK4): 13
Compound: takinib [Compound 1, reference compound]

Compound: C[C@@H]1CCN(C(=O)CC#N)C[C@@H]1N(C)c1ncnc2[nH]ccc12 [tofacitinib, reference compound]
- TNF secretion (THP-1 human macrophages; LPS and IFNγ challenge, FIG. 1D): minimal to no TNF reduction
- reduction in clinical arthritis scores vs vehicle ([3]; 30 mg/kg, PO, twice daily (BID), FIG. 4D): 50%

Compound: NC(=O)c1cccc(C(=O)/N=c2\[nH]c3ccc(CO)cc3n2[C@H]2CC[C@H](O)CC2)c1 [Compound 7]
- IC50 (TAK1 [1]; read-out: IC50 (TAK1)): 0.0016 µM
- IC50 (IRAK4): 0.0082 µM
- Ratio IC50 (IRAK4)/IC50 (TAK1) (IRAK4): 5

Compound: CN(Cc1cnc2nc(N)nc(N)c2n1)c1ccc(C(=O)N[C@@H](CCC(=O)O)C(=O)O)cc1 [methotrexate, reference compound]
- reduction in clinical arthritis scores vs vehicle ([3]; 1 mg/kg, PO, once daily, FIG. 4C): 72%

Compound: NC(=O)c1cccc(C(=O)/N=c2\[nH]c3cc(CN4CCCCC4)ccc3n2C2CCC(O)CC2)c1 (stereo not shown) [Compound 3]
- urine levels ([4]; 50 mg/kg oral gavage): M urine levels up to 24 hours post gavage
- plasma levels across all timepoints ([4]; 50 mg/kg oral gavage, 1-24 hours): low nM
- attenuation (reduction) of TNF expression (THP-1 human macrophages): 2.5 fold
- IC50 (TAK1 [1]; read-out: IC50 (TAK1)): 0.0028 µM
- IC50 (IRAK4; read-out: IC50 (IRAK4)): 0.0085 µM
- Ratio IC50 (IRAK4)/IC50 (TAK1) (IRAK4): 3

Compound: etanercept
- reduction in clinical arthritis scores vs vehicle ([3]; 10 mg/kg, IP, once daily, FIG. 4B): 57%

Compound: CCCn1/c(=N/C(=O)c2cccc(C(N)=O)c2)[nH]c2ccc(CN3CCCCC3)cc21 [Compound 5]
- time of Cmax post gavage ([4]; 50 mg/kg oral gavage): 2 h
- time post gavage up to which M (μM) plasma concentration was shown ([4]; 50 mg/kg oral gavage): 8 to 12 h
- peak in urine concentration ([4]; 50 mg/kg oral gavage, at 12 hours): 100 µM
- Cmax ([4]; male, Sprague Dawley, rat, plasma, 50 mg/kg oral gavage): 1.89 µM
- oral bioavailability ([4]; rat, in vivo, po): high
- enzymatic activity of ULK2 (ULK2 [5]): < 15 % enzymatic activity
- enzymatic activity of NUAK1 (NUAK1): < 15 % enzymatic activity
- enzymatic activity of TAK1 (TAK1 [6]): < 15 % enzymatic activity
- enzymatic activity of IRAK1 (IRAK1 [7]): < 15 % enzymatic activity
- enzymatic activity of CK1γ2 (CK1γ2): < 15 % enzymatic activity
- enzymatic activity of MAP4K5 (MAP4K5 [8]): < 15 % enzymatic activity
- reduction of arthritis score vs etanercept-refractory animals switched to vehicle [9]: 40%
- attenuation (reduction) of TNF expression (THP-1 human macrophages): 11 fold
- water solubility (Water solubility): good
- IC50 (TAK1 [1]; selectivity screening, FIG. 1B, read-out: TAK1 inhibition IC50): 0.0025 µM
- blood chemistries or complete blood counts [10]: no significant differences
- body weight change [10]: no significant weight loss
- morbidity [10]: no signs of morbidity
- relative organ weights (liver, heart, thymus, kidneys, brain, spleen) [10]: no significant weight loss; also recorded: did not cause any significant or dose-dependent changes; also recorded: not cause a significant or dose-dependent change
- IC50 (GCK): 0.033 µM
- IC50 (ULK2 [11]): 0.063 µM
- IC50 (MLK1): 5.59 µM
- IC50 (CAMKKβ-1): 1.28 µM
- IC50 (CLK2): 0.029 µM
- IC50 (CSNK1G2): 0.809 µM
- IC50 (TAK1 [12]): 0.008 µM
- IC50 (IRAK1 [13]): 0.264 µM
- IC50 (NUAK): 0.27 µM
- IC50 (MAP4K5 [14]): 0.124 µM
- reduction of clinical arthritis score ([3]; 10 mg/kg, PO): 18%
- reduction of clinical arthritis score ([3]; 30 mg/kg, PO): 35%
- reduction of AUC of clinical arthritis scores vs disease control ([3]; 50 mg/kg IP, QD days 21-26, Q2D days 27-36, FIG. 3C): 85%
- disease incidence on day 36 ([3]; 50 mg/kg IP, QD days 21-26, Q2D days 27-36, n=12): 75%
- reduction of bone resorption score vs vehicle [3, 15]: 87%
- reduction of cartilage damage score vs vehicle [3, 15]: 76%
- reduction of inflammation score vs vehicle [3, 15]: 62%
- reduction of pannus score vs vehicle [3, 15]: 86%
- reduction of periosteal bone formation score vs vehicle [3, 15]: 93%
- reduction in clinical arthritis scores vs vehicle ([3]; 50 mg/kg, IP, once daily, FIG. 4A): 85%
- reduction in disease clinical score (AUC) ([3]; IP dosing (25 mg/kg, QD)): 36%
- reduction in disease clinical score (AUC) ([3]; oral dosing (PO)): 35%
- IC50 (IRAK4; read-out: IC50 (IRAK4)): 2.5 µM
- IC50 (IRAK4; selectivity screening, FIG. 1B, read-out: IRAK4 inhibition IC50): 2.51 µM

Compound: CCCn1/c(=N/C(=O)c2cccc(C(N)=O)c2)[nH]c2ccc(CO)cc21 [Compound 4]
- IC50 (TAK1 [1]; read-out: IC50 (TAK1)): 0.0026 µM
- IC50 (IRAK4; read-out: IC50 (IRAK4)): 0.048 µM
- Ratio IC50 (IRAK4)/IC50 (TAK1) (IRAK4): 18
